1 compound from patent US7378265B2 (priority 1998, dated 2008) can be followed below.

The assay relates to recombinant retroviruses expressing the LacZ marker gene. In kind it is cell-based, retrovirus.

In the case of `OC[C@H]1O[C@@H]2O[C@H]3[C@H](O)[C@@H](O)[C@@H](O[C@H]4[C@H](O)[C@@H](O)[C@@H](O[C@H]5[C@H](O)[C@@H](O)[C@@H](O[C@H]6[C@H](O)[C@@H](O)[C@@H](O[C@H]7[C@H](O)[C@@H](O)[C@@H](O[C@H]8[C@H](O)[C@@H](O)[C@@H](O[C@H]1[C@H](O)[C@H]2O)O[C@@H]8CO)O[C@@H]7CO)O[C@@H]6CO)O[C@@H]5CO)O[C@@H]4CO)O[C@@H]3CO` [β-cyclodextrin], the “enhancement of the retroviral inactivation, additional factor” value worked out at 10.
